In publication PMC7248381, “Structure and Characterization of a Covalent Inhibitor of Src Kinase” (Frontiers in Molecular Biosciences, 2020):

Key:
[1] = parameters: method as in earlier work; conditions: comparison values, ref Gierse et al., 1999, Papp-Wallace et al., 2014, Schwartz et al.; cited from earlier work
Src kinase = Src kinase (Homo sapiens, UniProt P12931); experiment: Src enzymatic activity, mobility shift assay (MSA)
Sequence of Src kinase (P12931 254-536): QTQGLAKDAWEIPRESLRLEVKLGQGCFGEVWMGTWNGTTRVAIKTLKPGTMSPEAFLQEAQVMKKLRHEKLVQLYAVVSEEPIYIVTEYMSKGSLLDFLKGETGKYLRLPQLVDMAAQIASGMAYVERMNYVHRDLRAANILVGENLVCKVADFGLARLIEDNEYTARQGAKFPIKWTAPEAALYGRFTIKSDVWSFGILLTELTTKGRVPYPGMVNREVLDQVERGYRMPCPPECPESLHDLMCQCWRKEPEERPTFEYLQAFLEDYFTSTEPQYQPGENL
Experimental: Here, we evaluated the relative potency of inhibitors on Src enzymatic activity using a mobility shift assay (MSA), which measures phosphorylation of a peptide substrate of Src. […] The kinase reaction buffer consisted of 100 mM Hepes, pH 7.3, 0.015% Brij-35, 0.004% Tween-20, and 10 mM MgCl2. […] The percent conversion was determined by EZReader 3.0 software and analyzed using GraphPad software version 7 (La Jolla, California, USA) for determination of IC50 values.

| IC50 (Src kinase) [nM] | Structure (SMILES) | inactivation rate constant (kinact) [1] [s⁻¹] |
| --- | --- | --- |
|  | CCOc1cc2ncc(C#N)c(Nc3ccc(OCc4ccccn4)c(Cl)c3)c2cc1NC(=O)/C=C/CN(C)C [neratinib] | 0.002 |
|  | CN(C)C/C=C/C(=O)Nc1cc2c(Nc3ccc(F)c(Cl)c3)ncnc2cc1O[C@H]1CCOC1 [afatinib] | 0.001 |
| 26.6 | C=CC(=O)Nc1ccccc1Nc1nc(Nc2ccc(N3CCN(C)CC3)cc2)ncc1Cl [SM1-71] |  |
